From patent US12559769B2, “Methods and compositions for the activation of tumor cytotoxicity via human gamma-delta t-cells” (priority 2017, dated 2026) come the findings set out here.

The test deals with Vγ9Vδ2 T cells. The test is described as follows: Activation of Vγ9Vδ2 T cells (TNF-α, flow cytometry) by PC3 prostate carcinoma cells co-cultured with expanded PBMC. The format is cell-based, human. The method, then: PC3 cells were transduced with either LV-vector, LV-BTN3A3 (R381H), or LV-BTN3A3 (WT). Three days after transduction, cells were treated with or without 1 μM zoledronic acid. After 24 hours, the transduced PC3 cells were co-cultured with 5×10^5 PBMC cells and IL-2 in a round bottom 96 well plate for 4 hours. The PBMC cells were pre-stimulated with zoledronic acid and IL-2 for 11 days to expand Vγ9Vδ2 T cells. After staining for Vγ9Vδ2 and TNF-α using fluorophore-conjugated anti TCR-Vδ2 and anti-TNF-α antibody, cells were analyzed via flow cytometry. Live cells were gated, and Vδ2+ and TNF-α+ cells were selected on a dot blot. The activated cytotoxic Vγ9Vδ2 T cells appeared in the upper right quadrant of flow cytograms. Without zoledronic acid, the percent of TNF-α expressing Vγ9Vδ2 T cells was 0.37% with LV-vector, 26.7% with BTN3A3 (R381H), and 0.44% with LV-BTN3A3 (WT). With zoledronic acid, the percent of TNF-α expressing Vγ9Vδ2 T cells was 8.91% with LV-vector, 35.2% with BTN3A3 (R381H), and 8.76% with LV-BTN3A3 (WT).
PC3 cells were transduced with LV-vector, LV-BTN3A3 (R381H), or LV-shFDPS-BTN3A3 (R381H). Three days after transduction, cells were treated with or without 1 μM zoledronic acid. After 24 hours, the transduced PC3 cells were co-cultured with 5×10^5 PBMC cells and IL-2 in a round bottom 96 well plate for 4 hours. The PBMC cells were pre-stimulated with zoledronic acid and IL-2 for 11 days to expand Vγ9Vδ2 T cells. After staining for Vγ9Vδ2 and TNF-α using fluorophore-conjugated anti TCR-Vδ2 and anti-TNF-α antibody, cells were analyzed via flow cytometry. Live cells were gated, and Vδ2+ and TNF-α+ cells were selected on a dot blot. The activated cytotoxic Vγ9Vδ2 T cells appeared in the upper right quadrant of flow cytograms. Without zoledronic acid, the percent of TNF-α expressing Vγ9Vδ2 T cells was 0.1% with LV-vector, 21.1% with BTN3A3 (R381H), and 18.2% with the combination of LV-shFDPS-BTN3A3 (R381H). With zoledronic acid, the percent of TNF-α expressing Vγ9Vδ2 T cells was 13.6% with LV-vector, 25.5% with BTN3A3 (R381H), and 39.6% with the combination of LV-shFDPS-BTN3A3 (R381H).
PC3 cells were transduced with LV-shFDPS or LV-shFDPS-IL-2. Three days after transduction, cells were treated with or without 1 μM zoledronic acid. After 24 hours, the transduced PC3 cells were co-cultured with 5×10^5 PBMC cells and with or without IL-2 in a round bottom 96 well plate for 4 hours. The PBMC cells were pre-stimulated with zoledronic acid and IL-2 for 11 days to expand Vγ9Vδ2 T cells. After staining for Vγ9Vδ2 and TNF-α using fluorophore-conjugated anti TCR-Vδ2 and anti-TNF-α antibody, cells were analyzed via flow cytometry. Live cells were gated, and Vδ2+ and TNF-α+ cells were selected on a dot blot. The activated cytotoxic Vγ9Vδ2 T cells appeared in the upper right quadrant of flow cytograms. With only zoledronic acid, the percent of TNF-α expressing Vγ9Vδ2 T cells was 24.6% with LV-shFDPS and 46.8% with LV-shFDPS-IL-2. With zoledronic acid and IL-2, the percent of TNF-α expressing Vγ9Vδ2 T cells was 48.6% with LV-shFDPS and 41% with LV-shFDPS-IL-2.
PC3 cells were transduced with LV-vector, LV-shFDPS, or LV-shFDPS-IL-15. Three days after transduction, cells were treated with or without 1 μM zoledronic acid. After 24 hours, the transduced PC3 cells were co-cultured with 5×10^5 PBMC cells and with or without IL-2 in a round bottom 96 well plate for 4 hours. The PBMC cells were pre-stimulated with zoledronic acid and IL-2 for 11 days to expand Vγ9Vδ2 T cells. After staining for Vγ9Vδ2 and TNF-α using fluorophore-conjugated anti TCR-Vδ2 and anti-TNF-α antibody, cells were analyzed via flow cytometry. Live cells were gated, and Vδ2+ and TNF-α+ cells were selected on a dot blot. The activated cytotoxic Vγ9Vδ2 T cells appeared in the upper right quadrant of flow cytograms. With only zoledronic acid, the percent of TNF-α expressing Vγ9Vδ2 T cells was 10% with LV-vector, 13% with LV-shFDPS, and 14.6% with LV-shFDPS-IL-15. […]
For orientation: In flow cytometry, cells or beads pass a laser one at a time.

[1] abbreviates: Example 25, FIG. 29, LV-FDPS shRNA #4 transduced PC3 cells, drug 1 μM, 24 hours.
The mark [2] stands for this setting: Example 25, FIG. 29, LV-control transduced PC3 cells, 1 μM, 24 hours, untreated 1.73%.

On to `COC(=O)[C@H](CCSC)NC(=O)c1ccc(NC[C@@H](N)CS)cc1-c1ccccc1` [FT1277], for which the “percent of TNF-α expressing Vγ9Vδ2 T cells” value reads like this: under setting [1], 2.44%; under setting [2], 1.64%.

In the case of `C=C(CC[C@]12O[C@H](C(=O)O)[C@@](O)(C(=O)O)[C@](C(=O)O)(O1)[C@H](OC(=O)/C=C/[C@@H](C)C[C@@H](C)CC)[C@H]2O)[C@@H](OC(C)=O)[C@H](C)Cc1ccccc1` [zaragozic acid], the “percent of TNF-α expressing Vγ9Vδ2 T cells” value was 2.66% (Example 25, FIG. 29, LV-FDPS shRNA #4 transduced PC3 cells, drug 5 μM, 24 hours) and 1.57% (Example 25, FIG. 29, LV-control transduced PC3 cells, 5 μM, 24 hours, untreated 1.73%).

As for `O=P(O)(O)C(O)(Cn1ccnc1)P(=O)(O)O` [zoledronic acid], the “percent of TNF-α expressing Vγ9Vδ2 T cells” value runs as follows: (Example 3, LV-vector (control) transduced PC3 cells, 1 μM zoledronic acid) 8.91%; (Example 5, LV-vector (control) transduced PC3 cells, 1 μM zoledronic acid) 13.6%; (Example 8, LV-vector (control) transduced PC3 cells, only zoledronic acid (1 μM)) 10%; (Example 8, LV-vector (control) transduced PC3 cells, zoledronic acid (1 μM) and IL-2) 14.5%; (Example 19, LV-control transduced PC3 cells, 1 μM zoledronic acid) 5.71%; (Example 23, LV-control transduced PC3 cells, 1 μM zoledronic acid) 8.66%. The “percent of TNF-α expressing Vγ9Vδ2 T cells” value by setting is: under setting [1], 50.3%; under setting [2], 2.87%.
